Experimental data as given in patent US10588280B2, “Aided delivery of plant treatment agents” (Monsanto Technology LLC, priority 2014, dated 2020).

Key:
[1] = tested on: haploid seedlings derived from corn inbred 91DUQ1 or 83IDI1 (SAM); assay: Example 8: serial centrifugation with colchicine, unsubmerged spin at 340 g to 2000 g; format: in vivo; conditions: 1250 ppm colchicine, submerged 50 g 3 min
Excerpt: F1 hybrid-derived haploid seedlings derived from either female corn inbred line 91DUQ1 or male corn inbred line 83IDI1 were germinated in soil in a greenhouse in standard maize growing conditions and grown to the V1-V2 growth stage (1 week after planting). Seedlings were then removed from the soil, rinsed to remove residual soil, and partitioned into 5 samples comprising several dozen seedlings each.
This bundled PCS sample was placed into a centrifuge container, roots first. Each plant of the other four samples were individually wrapped to a PCS comprising a rod with a paraffin wrap and placed into a separate centrifuge container, one plant-PCS assembly per container, similar to that shown in FIG. 7.
Once attached to their respective PCSs and placed into their respective centrifuge containers, a solution comprising 1250 ppm colchicine was added to each container until each plant was submerged at least up until the SAM of every plant was submerged. All samples were then centrifuged with the SAMs submerged in treatment solution for 3 min at 50 g.
Following the first centrifugation, the treatment solution was drained from each centrifugation container, and then each sample was subjected to an unsubmerged spin for 3 minutes at one of six different rates, ranging from 340 g to 2000 g, as shown in Table 9.
Following the second centrifugation, the plants were removed from the centrifugation container and rinsed with water to remove any remaining colchicine solution, and then transplanted into 10-inch pots and tended in a growth room under standard maize growing conditions until they grew to maturity and flowered.
Self-pollinations were attempted with each plant that survived the treatment to produce pollen and an ear, and pollination success as determined within each sample.

[2] = tested on: haploid seedlings derived from 91DUQ1 or 83IDI1; assay: Example 7: serial centrifugation with colchicine at three growth stages (FIG. 4); format: in vivo, maize; conditions: 1250 ppm colchicine, submerged 50 g 3 min then unsubmerged 335 g 3 min, ear with at least four kernels
Excerpt: Three different growth stages and the effects on DH-related success indicators between the three life stages were compared.
F1 hybrid-derived haploid seedlings derived from either female inbred line 91DUQ1 or male inbred line 83IDI1 were germinated in soil in a greenhouse in standard maize growing conditions. To ensure that the older seedlings would fit into the centrifuge sample container, and to ensure that all seedlings received the same chemical treatments, all seedlings were subjected to a 1% paclobutrazol (PBZ) soil drench treatment at 6 days after planting, 10 ml per plant.
This population of seedlings was subdivided into 3 samples, each comprising several dozen seedlings. Half of the seedlings in each sample were derived from 91DUQ1 and the other half derived from 83IDI1. A first sample was removed from the soil at the V1-V2 growth stage (1 week after planting), a second sample removed from the soil at the V3-V4 stage (2 weeks after planting) and a third sample removed from the soil at the V4-V5 growth stage (3 weeks after planting).
Following removal from the soil, seedlings in each sample were rinsed in water to remove residual soil, then wrapped in a PCS along with several wooden rods, similar that that shown in FIG. 9, and subjected to a first submerged centrifugation in 1250 ppm colchicine at 50 g for 3 min.
Following the first, submerged centrifugation, the plant treatment solution was decanted. The seedlings, with some residual agent clinging to their surfaces, were returned to the empty centrifuge container and subjected to a unsubmerged centrifugation at 335 g for 3 min. […]
Self-pollinations were attempted with each plant that survived the treatment to produce pollen and silks and during the ensuing growth the pollination success, fertilization success and final doubling efficiency were determined within each sample. In this experiment, the doubling efficiency within each growth stage sample was calculated by dividing the number of plants that produced at least one ear comprising at least four kernels by the total number of plants treated.

[3] = tested on: haploid maize seedlings (shoot meristem); assay: Example 1: single unsubmerged centrifugation after colchicine soak, chromosome doubling success; format: in vivo; conditions: 1250 ppm colchicine 10 min soak, unsubmerged spin 335 g 3 min
Excerpt: Corn seeds of four different maize F1 hybrid-derived haploid induction populations were used in this experiment; two of the populations, Male 1 and Male 2, were derived from two different male inbred lines and the remaining two populations, Female 1 and Female 2, were derived from two different female inbred lines. Seeds of each germplasm were germinated in soil and the subsequent seedlings tended in a greenhouse under standard maize growing conditions until the seedlings reached the V1 to V2 growth stages.
Next, several randomly-selected seedlings of each germplasm were then removed from the soil, washed to remove residual soil and then subjected to a contacting step which included soaking the seedlings for 10 minutes in a liquid doubling agent comprising 1250 ppm colchicine.
After the contacting step, seedlings were bundled in a PCS with wooden rods, similar to that described in FIG. 9. The seedlings and rods were wrapped tightly together with several layers of aluminum foil. Care was taken to wrap the seedlings tightly, but not so tight as to damage the tissues of the seedling. The folds and layers of the wrap were arranged such that any liquid agent still clinging to the surface of the plant would not be trapped inside the wrap during centrifugation.
Once arranged in the centrifuge, seedlings were subjected to an unsubmerged centrifugation at 335 g for 3 min.
After centrifugation, the seedlings were removed from the centrifuge container, rinsed with water to remove any remaining plant treatment agent, and then transplanted into 10-inch pots in a growth room where they were tended under standard maize growing conditions until they grew to maturity and flowered.
Self-pollinations were attempted with each plant that survived the treatment to produce pollen and during the ensuing growth the pollination success, fertilization success and final doubling efficiency were determined within each sample.
Control samples of several randomly-selected seedlings from each germplasm received no exposure to the plant treatment agent, but were otherwise handled identically as their treated counterparts.

[4] = bundled PCS, unsubmerged 340 g 3 min
[5] = individually-wrapped PCS, unsubmerged 340 g 3 min
[6] = individually-wrapped PCS, unsubmerged 500 g 3 min
[7] = individually-wrapped PCS, unsubmerged 750 g 3 min
[8] = individually-wrapped PCS, unsubmerged 1000 g 3 min
[9] = individually-wrapped PCS, unsubmerged 2000 g 3 min

Structure (SMILES): COc1cc2c(c(OC)c1OC)-c1ccc(OC)c(=O)cc1[C@@H](NC(C)=O)CC2 [colchicine]
- DE [1, 4]: 68.9%
- Fertilization Success [1, 4]: 85.0%
- Pollination success [1, 4]: 90.0%
- Survival Rate [1, 4]: 90.0%
- DE [1, 5]: 89.3%
- Fertilization Success [1, 5]: 96.2%
- Pollination success [1, 5]: 100.0%
- Survival Rate [1, 5]: 92.9%
- DE [1, 6]: 96.4%
- Fertilization Success [1, 6]: 100.0%
- Pollination success [1, 6]: 100.0%
- Survival Rate [1, 6]: 96.4%
- DE [1, 7]: 83.3%
- Fertilization Success [1, 7]: 95.2%
- Pollination success [1, 7]: 100.0%
- Survival Rate [1, 7]: 87.5%
- DE [1, 8]: 85.7%
- Fertilization Success [1, 8]: 100.0%
- Pollination success [1, 8]: 92.3%
- Survival Rate [1, 8]: 92.9%
- DE [1, 9]: 63.6%
- Fertilization Success [1, 9]: 87.5%
- Pollination success [1, 9]: 100.0%
- Survival Rate [1, 9]: 72.7%
- DE ([2]; V1-V2 growth stage): over 70%
- doubling efficiency, average ([2]; V4-V5 growth stage): ~30%
- doubling efficiency, median ([2]; V4-V5 growth stage): 36.7%
- DE (doubling efficiency) ([3]; Female1): 42%
- Fertilization Successes ([3]; Female1, 19 plants treated): 8
- Pollination Successes ([3]; Female1, 19 plants treated): 10
- DE (doubling efficiency) ([3]; Female2): 50%
- Fertilization Successes ([3]; Female2, 8 plants treated): 4
- Pollination Successes ([3]; Female2, 8 plants treated): 6
- DE (doubling efficiency) ([3]; Male1): 71%
- Fertilization Successes ([3]; Male1, 14 plants treated): 10
- Pollination Successes ([3]; Male1, 14 plants treated): 13
- DE (doubling efficiency) ([3]; Male2): 67%
- Fertilization Successes ([3]; Male2, 15 plants treated): 10
- Pollination Successes ([3]; Male2, 15 plants treated): 12
